Experiments:
[1] = tested on: primary human hepatocytes (PHHs); assay: paclitaxel metabolism in primary human hepatocytes; assay type: cell-based; conditions: 1 μM PTX with 10 μM test compound, 24 and 48 hr
Procedure: FIGS. 1A-1D show representative data for a representative disclosed compound showing that the tested compound modulates the activity of an hPXR agonist in primary human hepatocytes (“PHHs”). […] PHHs were pretreated with DMSO (0.1%), 1.6 μM of rifampicin (RIF), 0.5 μM of paclitaxel (PTX) or 5 μM of PTX, respectively, in the absence and presence of 10 μM of the test compound. After 72 hr, PHHs then received 3.3 μM of midazolam (MDZ) treatment for 4 h. The concentrations of 1′-OH MDZ (MDZ metabolite) in the media of each pretreatment condition were determined using LC/MS/MS as described in the Examples. […] PHHs were also treated with 1 μM of PTX in the absence and presence of 10 μM of the test compound, and then the concentrations of major PTX metabolites, 3-OH PTX (by CYP3A4) and 6α-OH PTX (by CYP2C8), were determined using LC/MS/MS at 24 hr and 48 hr of treatment, respectively. The concentrations of 3-OH PTX and 6α-OH PTX are shown in FIGS. 1B and 1C, respectively.
Midazolam and 1-OH midazolam were from BD Gentest. Midazolam-D4 maleate (internal standard, IS) was from Cerilliant; Paclitaxel and 3′-p-Hydroxypaclitaxel were from Sigma; and 6α-hydroxy Paclitaxel was from Cayman Chemical. 100 μl of reaction medium at each different time point was collected and 200 μl of acetonitrile containing IS was added. […] Calibration and quality control samples were prepared. […]

[2] = tested on: primary human hepatocytes (PHHs); assay: midazolam metabolism in primary human hepatocytes after hPXR agonist pretreatment; assay type: cell-based; conditions: PHHs pretreated 72 hr with DMSO, 1.6 μM RIF, 0.5 or 5 μM PTX, with 10 μM test compound; then 3.3 μM MDZ 4 h
Procedure: Midazolam and 1-OH midazolam were from BD Gentest. Midazolam-D4 maleate (internal standard, IS) was from Cerilliant; Paclitaxel and 3′-p-Hydroxypaclitaxel were from Sigma; and 6α-hydroxy Paclitaxel was from Cayman Chemical. 100 μl of reaction medium at each different time point was collected and 200 μl of acetonitrile containing IS was added. This solution was then vigorously mixed for 10 min and centrifuged at 10,000 rpm for 10 min. Calibration and quality control samples were prepared. 5 μl of the samples was injected onto a Waters Acquity UPLC BEH C18 column (2.1×50 mm, 1.7 μm), using a Waters Acquity UPLC system. Chromatographic separation was performed by gradient elution at a constant flow rate of 1 mL/min for 15 min. The gradient consisted of 0.1% formic acid water (mobile phase A) and methanol (mobile phase B). […] Nitrogen was applied as curtain, collision and drying gas at 60 psi. Declustering potentials, entrance potential and collision energy was as follows: 120 V, 12 V and 35 V for MDZ; 70 V, 12 V and 30 V for 1-OH MDZ; and 120 V, 12 V and 37 V for IS.

[3] = tested on: hPXR; assay: liver CYP3A expression in hPXR-tg mice; assay type: in vivo, mouse; conditions: RIF 10 mg/kg plus test compound 200 mg/kg, 72 h
Procedure: Briefly, mouse liver Cyp3a11 mRNA was analyzed by real-time PCR in hPXR-tg mice treated with vehicle control (Vehicle), RIF (10 mg/kg) or RIF (10 mg/kg) plus test compound (200 mg/kg) for 72 h. Each data point represents the level of Cyp3a11 mRNA (FIG. 3A) or protein (FIG. 3B) in an individual mouse; lines indicate the mean value for 3-7 mice per group.
hPXR-tg mice were generated previously (Xie et al., 2000). Five mice in each group were dosed orally with vehicle control or 10 mg/kg RIF, every 24 h for three days. Eight hours after the last dose, the animals were euthanized by C02 and liver tissues were harvested. A piece of each liver was preserved in RNAlater solution (Invitrogen) at 4° C. for mRNA isolation. The remaining tissue was instantly frozen in liquid nitrogen and stored at −80° C. for total protein extraction. […]

[4] = tested on: CYP3A4 promoter reporter; assay: CYP3A4 promoter reporter activity in hPXR-CYP3A4-luc reporter mice (bioluminescence imaging); assay type: in vivo, mouse; conditions: RIF 10 mg/kg plus test compound 150 mg/kg every 24 h for 2 days; imaging 10 h after last treatment
Procedure: Individual mouse received 3 rounds of sequential treatment of vehicle control (Vehicle), RIF (10 mg/kg) and RIF (10 mg/kg) plus the test compound (150 mg/kg) every 24 h for 2 days, respectively, with a washout period of 72-hour between two rounds of treatment. The luciferase activity in these reporter mice was recorded by bioluminescence imaging 10 h after the last treatment of each round, and the induction of CYP3A4 promoter reporter activity was calculated as described in Examples. Each data point represents the induction of CYP3A4 promoter reporter activity by the treatment in an individual mouse, and dos lines indicate the CYP3A4 promoter reporter activity change in individual mouse after following round of treatment. p values are indicated between the two treatment compared by paired t test.
10 hours after the last treatment of each round, the mice were imaged as described above. Uniform regions of interest were drawn around the liver, and total photon flux was analyzed with Living Image 3.2 software (Xenogen). The induction of CYP3A4-luc reporter activity was calculated using the imaging from the same mouse as follows: induction rate=total photon flux (after treatment)/total photon flux (before treatment).

[5] = tested on: hPXR-tg mice; assay: loss of righting reflex (LORR) assay in hPXR transgenic mice; assay type: in vivo, mouse; conditions: RIF 10 mg/kg plus test compound 200 mg/kg every 24 h for three days
Procedure: Loss of righting reflex (LORR) duration was recorded as described in Examples to measure metabolism of the anesthetic ([…]) in hPXR-tg, mice before and after treatment with vehicle, RIF, and RIF plus the test compound as indicated. Each data point represents LORR duration in an individual mouse; lines indicate LORR duration change in individual mouse before and after treatment. P values indicate comparison of values by paired t test.
Mice were intraperitoneally injected with 250 mg/kg of 2,2,2-tribromoethanol, which is metabolically cleared only via mouse CYP3A11. After the mice lost their righting reflex, they were placed on their backs under a heat lamp. The duration of LORR was measured as the time from the start of LORR to recovery (i.e., when mice could right themselves after being placed on their backs twice within 1 min). A baseline LORR duration was established for each mouse at the administered dose of 2,2,2-tribromoethanol. […] The paired Student's t-test was used to compare LORR duration between baseline and after treatment. A P value <0.05 was considered to indicate a significant difference between compared groups.

[6] = tested on: LS 180 cells stably overexpressed hPXR; assay: sensitization of colon cancer cells to anti-cancer drugs (viability); assay type: cell-based, human; conditions: absence vs presence of 10 μM test compound, 96 h
Procedure: FIGS. 2A-2D show representative data for a representative disclosed compound showing that the tested compound sensitizes colon cancer cells to representative anti-cancer drugs. […] LS 180 cells stably overexpressed hPXR were treated with serial dilutions of paclitaxel (PTX; see FIG. 2A), docetaxel (TXT; see FIG. 2B), vinblastine (VBL; see FIG. 2C), or vincristine (VCR; see FIG. 2D) in the absence and presence of 10 μM of the test compound as indicated for 96 h. Values of the viability of compound-treated cells were expressed as a percentage of that of DMSO-treated cells, and drug concentration is expressed in a log scale. Data at each point represents mean±SEM from quadruplicate measurements.

SMILES: COc1ccc(OC)c(-n2nnc(S(=O)(=O)c3ccc(C(C)(C)C)cc3)c2C)c1 [4-((4-(tert-butyl)phenyl)sulfonyl)-1-(2,5-dimethoxyphenyl)-5-methyl-1H-1,2,3-triazole]
- metabolism of PTX to 3-OH PTX (by CYP3A4) [1]: effectively blocked
- metabolism of PTX to 6α-OH PTX (by CYP2C8) [1]: effectively blocked
- metabolism of MDZ (1′-OH MDZ in the media) [2]: essentially blocked
- hPXR-mediated increase in CYP3A expression (liver Cyp3a11 mRNA, CYP3A protein) [3]: inhibits the hPXR-mediated increase in CYP3A expression
- RIF-induced expression of the reporter under the control of the CYP3A4 promoter [4]: significantly reduced
- RIF-induced metabolism of the anesthetic, by LORR duration [5]: significantly inhibited
- apparent IC50 for PTX, TXT, VBL, or VCR [6]: significantly higher in the absence of the test compound

Reference: patent US10550091B2, “1,4,5-substituted 1,2,3-triazole analogues as antagonists of the pregnane X receptor” (ST. JUDE CHILDREN'S RESEARCH HOSPITAL, priority 2016, dated 2020)
